Test [1] deals with T1, human sphingosine-1-phosphate receptor 1 (S1P1) (Homo sapiens, UniProt P21453). The test can be described thus: Inhibition of cAMP production (HTRF cAMP HiRange), S1P1 CHO-K1 cells. Type of test: cell-based. Conditions: for EC50: read-out: hS1P1 CAMP pEC50 (converted). An outline of the steps:
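Intracellular cAMP changes read by TR-FRET (HTRF HiRange, 1 h room temperature) after 30 min compound exposure at 37 °C. Cells: overnight-plated CHO-K1 stably expressing tagged human S1P1 with EA-β-arrestin2. Responses normalized to fingolimod.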
Target sequence in this assay (P21453 whole entry): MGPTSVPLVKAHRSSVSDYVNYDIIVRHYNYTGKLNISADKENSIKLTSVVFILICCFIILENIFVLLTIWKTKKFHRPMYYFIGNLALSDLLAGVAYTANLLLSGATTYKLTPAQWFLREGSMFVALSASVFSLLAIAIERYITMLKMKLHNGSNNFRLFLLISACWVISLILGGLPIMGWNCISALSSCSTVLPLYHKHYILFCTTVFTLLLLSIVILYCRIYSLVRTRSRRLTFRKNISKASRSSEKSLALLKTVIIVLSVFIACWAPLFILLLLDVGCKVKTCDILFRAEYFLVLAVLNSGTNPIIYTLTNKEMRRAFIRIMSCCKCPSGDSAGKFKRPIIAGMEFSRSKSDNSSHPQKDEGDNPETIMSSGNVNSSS

In test [2] the target is T1, human sphingosine-1-phosphate receptor 1 (S1P1). Description: β-Arrestin2 recruitment assay (PathHunter), S1P1 CHO-K1 cells. The test is classed as cell-based. Particulars: for EC50: β-arrestin2 recruitment, read-out: hS1P1 B-arrestin2 pEC50 (converted). An outline of the steps: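 Agonist-driven β-arrestin2 recruitment measured by β-galactosidase complementation after 60 min compound exposure at 37 °C and 1 h detection at room temperature. Cells: stable CHO-K1 line expressing tagged human S1P1 with EA-β-arrestin2, plated the night before. Data expressed relative to fingolimod.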
Target sequence in this assay (P21453 whole entry): as above
Target sequence in this assay (P32121 whole entry partner): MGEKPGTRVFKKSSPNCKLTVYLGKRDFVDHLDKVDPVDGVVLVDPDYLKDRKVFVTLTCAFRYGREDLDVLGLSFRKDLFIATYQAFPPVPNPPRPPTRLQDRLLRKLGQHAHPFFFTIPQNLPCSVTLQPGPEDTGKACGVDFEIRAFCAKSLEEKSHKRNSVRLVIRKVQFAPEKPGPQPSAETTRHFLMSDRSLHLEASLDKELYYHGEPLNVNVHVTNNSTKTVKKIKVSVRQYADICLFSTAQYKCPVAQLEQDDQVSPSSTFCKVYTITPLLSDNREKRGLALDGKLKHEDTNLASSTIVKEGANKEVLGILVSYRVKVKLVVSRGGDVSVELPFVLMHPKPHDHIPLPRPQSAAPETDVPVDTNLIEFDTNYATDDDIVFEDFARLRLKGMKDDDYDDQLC
For orientation: Recruitment of arrestin is a read-out of receptor activation apart from second messengers.

[3] abbreviates: CHO-K1, inhibition of cAMP production, efficacy normalized to maximum efficacy of fingolimod, read-out: hS1P1 CAMP SPAN.
The mark [4] stands for this setting: inhibition of cAMP production, potency.
The mark [5] stands for this setting: CHO-K1, β-arrestin2 recruitment, efficacy normalized to maximum efficacy of fingolimod, read-out: hS1P1 B-arrestin2 SPAN.
The mark [6] stands for this setting: CHO-K1, efficacy normalized to maximum efficacy of fingolimod, read-out: hS1P1 CAMP SPAN.
Setting [7] is: inhibition of cAMP production, S1P1.
The mark [8] stands for this setting: CHO-K1, efficacy normalized to maximum efficacy of fingolimod, read-out: hS1P1 B-arrestin2 SPAN.

pEC50: −log10 of the molar value.

For `COc1ccccc1-c1nnc(-c2ccc3[nH]oc(=O)c3c2)o1` [Compound 339, 5-[5-(2-methoxyphenyl)-1,3,4-oxadiazol-2-yl]-1,3-dihydro-2,1-benzoxazol-3-one], the Emax in test [1] (setting [3]) and in test [2] (setting [5]) was under 75% throughout. Also, the EC50 in test [1] (setting [4]) is over 316 nM; in test [2] (potency), over 10000 nM.

Turning to `Cc1cnc(-c2noc(-c3ccc4c(c3)nnn4C(C)C)n2)cn1` [Compound 157, 5-[3-(5-methylpyrazin-2-yl)-1,2,4-oxadiazol-5-yl]-1-(propan-2-yl)-1H-1,2,3-benzotriazole], the Emax in test [1] (setting [3]) and in test [2] (setting [5]) was under 75% throughout. Further, the EC50 is over 316 nM in test [1] (setting [4]) and over 10000 nM in test [2] (potency).

For the compound `CCC1(CC)CC(=O)c2cc(-c3nc(-c4cnccc4C)no3)ccc2O1` [Compound 549, 2,2-diethyl-6-(3-(4-methylpyridin-3-yl)-1,2,4-oxadiazol-5-yl)chroman-4-one], the Emax in test [1] (setting [6]) and in test [2] (setting [8]) was over 75% in each case. The EC50 in test [1] (setting [7]) was under 316 nM; in test [2] (S1P1), under 10000 nM.

As for `CC(C)Oc1ccc(-c2ncc(-c3ccc4c(c3)nnn4C(C)C)cn2)cc1C#N` [Compound 595, 2-isopropoxy-5-(5-(1-isopropyl-1H-benzo[d][1,2,3]triazol-5-yl)pyrimidin-2-yl)benzonilrile], the Emax in test [1] (setting [6]) and in test [2] (setting [8]) was over 75% in each case. In addition, the EC50 in test [1] (setting [7]) was under 316 nM; in test [2] (S1P1), under 10000 nM.

As to `CCC1(CC)CC(=O)c2cc(-c3nc(-c4ccc[nH]4)no3)ccc2O1` [Compound 464, 6-(3-(1H-pyrrol-2-yl)-1,2,4-oxadiazol-5-yl)-2,2-diethylchroman-4-one], the Emax in test [1] (setting [6]) and in test [2] (setting [8]) was under 75% each time. For the same compound, the values for the EC50 in test [1] (setting [7]) and in test [2] (S1P1) were under 316 nM and over 10000 nM, respectively.

For the compound `CCC1(CC)CC(=O)c2cc(-c3nc(-c4cccc(OC)n4)no3)ccc2O1` [Compound 553, 2,2-diethyl-6-[3-(6-methoxypyridin-2-yl)-1,2,4-oxadiazol-5-yl]-3,4-dihydro-2H-1-benzopyran-4-one], the Emax in test [1] (setting [6]) is over 75%; in test [2] (setting [8]), under 75%. Besides, the EC50 in test [1] (setting [7]) was over 316 nM; in test [2] (S1P1), under 10000 nM.

Take `COc1ccccc1-c1cnc(-c2ccc3c(c2)nnn3C(C)C)nc1` [Compound 565, 1-isopropyl-5-(5-(2-methoxyphenyl)pyrimidin-2-yl)-1H-benzo[d][1,2,3]triazole]: the Emax in test [1] (setting [6]) and in test [2] (setting [8]) was over 75% throughout. Also, the EC50 in test [1] (setting [7]) is under 316 nM; in test [2] (S1P1), under 10000 nM.

For the compound `CCOP(=O)(Cc1ccc(-c2noc(-c3ccc4c(c3)nnn4C(C)C)n2)cc1)OCC` [Compound 583, diethyl[(4-{5-[1-(propan-2-yl)-1H-1,2,3-benzotriazol-5-yl]-1,2,4-oxadiazol-3-yl}phenyl)methyl]phosphonate], the pEC50 in test [1] was under 6.50; in test [2], under 5.00. The Emax was under 75% in test [1] (CHO-K1, read-out: hS1P1 CAMP SPAN) and under 75% in test [2] (CHO-K1, read-out: hS1P1 B-arrestin2 SPAN).

Turning to `CC(C)n1ccc2cc(-c3noc(-c4ccccn4)n3)ccc21` [Compound 397, 3-(1-isopropyl-1H-indol-5-yl)-5-(pyridin-2-yl)-1,2,4-oxadiazole], the Emax in test [1] (setting [6]) is under 75%; in test [2] (setting [8]), over 75%. For the same compound, the EC50 in test [1] (setting [7]) is over 316 nM; in test [2] (S1P1), over 10000 nM.

`Cc1ccncc1-c1noc(-c2ccc3nnn(CC(C)C)c3c2)n1` [Compound 3, 1-(2-methylpropyl)-6-[3-(4-methylpyridin-3-yl)-1,2,4-oxadiazol-5-yl]-1H-1,2,3-benzotriazole]: the Emax in test [1] (setting [3]) and in test [2] (setting [5]) was over 75% in each case. Moreover, the EC50 in test [1] (setting [4]) is under 316 nM; in test [2] (potency) it was under 10000 nM.

With `CC(C)c1ccc(-c2nc(-c3ccc4c(c3)nnn4C(C)C)no2)cn1` [Compound 25, 3-(1-isopropyl-1H-benzo[d][1,2,3]triazol-5-yl)-5-(6-isopropyl-pyridin-3-yl)-1,2,4-oxadiazole], the Emax in test [1] (setting [3]) and in test [2] (setting [5]) was under 75% in each case. The results for the EC50 in test [1] (setting [4]) and in test [2] (potency) were over 316 nM and over 10000 nM, respectively.

As to `CCC1CC(=O)c2ccc(-c3nc(-c4cccnc4)no3)cc2O1` (stereo not drawn) [Compound 588, 2-ethyl-7-[3-(pyridin-3-yl)-1,2,4-oxadiazol-5-yl]-3,4-dihydro-2H-1-benzopyran-4-one], the Emax in test [1] (setting [6]) and in test [2] (setting [8]) was under 75% throughout. The EC50 in test [1] (setting [7]) was over 316 nM; in test [2] (S1P1), over 10000 nM.

As to `CC(C)n1nnc2cc(-c3noc(-c4cccc(COc5ccccc5)c4)n3)ccc21` [Compound 23, 3-(1-isopropyl-1H-benzo[d][1,2,3]triazol-5-yl)-5-(3-(phenoxy-methyl)phenyl)-1,2,4-oxadiazole], the Emax in test [1] (setting [3]) and in test [2] (setting [5]) was under 75% each time. The figures for the EC50 in test [1] (setting [4]) and in test [2] (potency) were over 316 nM and over 10000 nM, respectively.

`Cc1cccc2nc(-c3ccc4c(c3)nnn4CC(C)C)oc12` [Compound 449, 2-(1-isobutyl-1H-benzo[d][1,2,3]triazol-5-yl)-7-methyl-benzo[d]oxazole]: the Emax in test [1] (setting [6]) and in test [2] (setting [8]) was over 75% throughout. Besides, the EC50 in test [1] (setting [7]) was over 316 nM; in test [2] (S1P1), over 10000 nM.

For `CC(C)Cn1nnc2cc(-c3nc4c(Cl)cccc4o3)ccc21` [Compound 453, 4-chloro-2-(1-isobutyl-1H-benzo[d][1,2,3]triazol-5-yl)benzo[d]oxazole], the Emax in test [1] (setting [6]) is over 75%; in test [2] (setting [8]) it was under 75%. Moreover, the EC50 in test [1] (setting [7]) was under 316 nM.

For `COc1ccccc1-c1noc(-c2ccc3[nH]ncc3c2)n1` [Compound 371, 5-(1H-indazol-5-yl)-3-(2-methoxyphenyl)-1,2,4-oxadiazole], the Emax in test [1] (setting [3]) and in test [2] (setting [5]) was under 75% in each case. In addition, the EC50 in test [1] (setting [4]) was over 316 nM; in test [2] (potency), over 10000 nM.

Turning to `COc1ccccc1-c1noc(-c2ccc3c(c2)ncn3C(C)C)n1` [Compound 373, 5-(1-isopropyl-1H-benzo[d]imidazol-5-yl)-3-(2-methoxy-phenyl)-1,2,4-oxadiazole], the Emax in test [1] (setting [6]) and in test [2] (setting [8]) was over 75% throughout. Moreover, the EC50 in test [1] (setting [7]) is over 316 nM; in test [2] (S1P1) it was over 10000 nM.

`N#Cc1cc(-c2nc(-c3ccc4c(c3)NC(=O)CC4)no2)ccc1NCC1CC1` [Compound 471, 2-((cyclopropyl-methyl)amino)-5-(3-(2-oxo-1,2,3,4-tetrahydroquinolin-7-yl)-1,2,4-oxadiazol-5-yl)benzonitrile]: the Emax in test [1] (setting [6]) and in test [2] (setting [8]) was over 75% each time. Also, the EC50 in test [1] (setting [7]) is under 316 nM; in test [2] (S1P1), under 10000 nM.

Consider `Brc1ccccc1-c1nc(-c2ccc3c(c2)nnn3Cc2ccncc2)no1` [Compound 48, 5-(2-bromophenyl)-3-(1-(pyridin-4-ylmethyl)-1H-benzo[d][1,2,3]triazol-5-yl)-1,2,4-oxadiazole], for which the Emax in test [1] (setting [3]) and in test [2] (setting [5]) was under 75% each time. Moreover, the EC50 in test [1] (setting [4]) is over 316 nM; in test [2] (potency) it was over 10000 nM.

Turning to `CCC1(CC)CC(=O)c2cc(-c3nc(-c4ccnc(C(=O)NC)c4)no3)ccc2O1` [Compound 592, 4-(5-(2,2-diethyl-4-oxochroman-6-yl)-1,2,4-oxadiazol-3-yl)-N-methylpicolinamide], the Emax was under 75% in test [1] (setting [6]) and over 75% in test [2] (setting [8]). Also, the EC50 is over 316 nM in test [1] (setting [7]) and over 10000 nM in test [2] (S1P1).

As for `COc1ccccc1-c1cnc(-c2ccc3c(c2)nnn3C(C)C)s1` [Compound 184, 2-(1-isopropyl-1H-benzo[d][1,2,3]triazol-5-yl)-5-(2-methoxy-phenyl)thiazole], the Emax in test [1] (setting [3]) is over 75%; in test [2] (setting [5]), under 75%. Also, the figures for the EC50 in test [1] (setting [4]) and in test [2] (potency) were over 316 nM and over 10000 nM, respectively.

Consider `CC(C)Cn1nnc2cc(-c3nc(-c4ccccc4Cl)no3)ccc21` [Compound 289, 5-[3-(2-chlorophenyl)-1,2,4-oxadiazol-5-yl]-1-(2-methylpropyl)-1H-1,2,3-benzotriazole], for which the Emax in test [1] (setting [3]) and in test [2] (setting [5]) was under 75% each time. Moreover, the EC50 in test [1] (setting [4]) is over 316 nM; in test [2] (potency), over 10000 nM.

With `CC(C)n1ccc2cc(-c3noc(-c4ccncc4)n3)ccc21` [Compound 395, 3-(1-isopropyl-1H-indol-5-yl)-5-(pyridin-4-yl)-1,2,4-oxadiazole], the Emax is under 75% in test [1] (setting [6]) and over 75% in test [2] (setting [8]). In addition, the EC50 in test [1] (setting [7]) is under 316 nM; in test [2] (S1P1) it was under 10000 nM.

For the compound `CCCn1nnc2cc(-c3nc(-c4cccc(C)c4)no3)ccc21` [Compound 54, 5-[3-(3-methylphenyl)-1,2,4-oxadiazol-5-yl]-1-propyl-1H-1,2,3-benzotriazole], the Emax in test [1] (setting [3]) was under 75%; in test [2] (setting [5]) it was over 75%. The EC50 was over 316 nM in test [1] (setting [4]) and over 10000 nM in test [2] (potency).

As to `N#Cc1cc(-c2nnc(-c3ccc4c(c3)CCC(=O)N4)o2)ccc1NCC(F)F` [Compound 477, 2-[(2,2-difluoroethyl)amino]-5-[5-(2-oxo-1,2,3,4-tetrahydro-quinolin-6-yl)-1,3,4-oxadiazol-2-yl]benzonitrile], the Emax in test [1] (setting [6]) is over 75%; in test [2] (setting [8]), under 75%. The EC50 was under 316 nM in test [1] (setting [7]) and under 10000 nM in test [2] (S1P1).

By pEC50 is commonly meant the EC50 on a negative log10 scale, so that one unit is a factor of ten.

Values taken from patent publication US20230114241A1, “METHODS OF TREATING EPILEPSY USING THE SAME” (Trevena, Inc., priority 2019, published 2023).
